Here are results for 10 molecules from PubChem BioAssay (NCI).

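96-well plates; 48 h exposure; 5 concentrations. Endpoints by linear interpolation between flanking doses. Not reached: highest tested concentration assigned. Definition used: TGI = concentration required for complete inhibition of growth.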

Among the test systems are LOX IMVI melanoma; TK-10 renal; SN12C renal; NCI-H23 lung; A498 renal; MOLT-4 leukemia; SK-OV-3 ovarian; OVCAR-3 ovarian; NCI-H522 lung; PC-3 prostate; SR leukemia; SNB-19 CNS; UACC-62 melanoma.
What all share (assay): NCI-60 cell line screen, 48 h

On to `COC(=O)/C=C\C(C#N)(C#N)N=Cc1ccc(OC)cc1`, for which the TGI in the assay with LOX IMVI melanoma amounted to 11.4 µM; with TK-10 renal, 6.73 µM; in the assay on SN12C renal, 30.9 µM; with NCI-H23 lung, 28.3 µM; with A498 renal, 33 µM; in the assay with MOLT-4 leukemia it was 4.39 µM. Also, the TGI with SK-OV-3 ovarian is 31 µM; in the assay on OVCAR-3 ovarian, 6.64 µM; in the assay with NCI-H522 lung, 2.26 µM; in the assay on PC-3 prostate it was 19.6 µM; with SR leukemia it was 3.99 µM; in the assay with SNB-19 CNS it was more than 62.7 µM. In addition, the TGI with UACC-62 melanoma amounted to 30 µM.
On to `COc1ccc2nc3cc(Cl)ccc3c(NCCCN3CCN(CCCNc4ccc5nnn6c7ccccc7c(=O)c4c56)CC3)c2c1`, for which the TGI in the assay with LOX IMVI melanoma, with TK-10 renal, in the assay with SN12C renal, with NCI-H23 lung, in the assay on A498 renal and in the assay with MOLT-4 leukemia was more than 25 µM each time. In addition, the TGI was more than 25 µM with SK-OV-3 ovarian; more than 25 µM in the assay with OVCAR-3 ovarian; more than 23.8 µM with NCI-H522 lung; more than 25 µM in the assay with PC-3 prostate; more than 25 µM with SR leukemia; more than 25 µM with SNB-19 CNS. In the assay on UACC-62 melanoma, this molecule showed a TGI of more than 25 µM.
As to `C/C(C=O)=C/[C@@]1(C)O[C@@H](C)[C@@](C)(O)[C@@H]1O`, the TGI was more than 100 µM with LOX IMVI melanoma; more than 100 µM in the assay with TK-10 renal; more than 100 µM with SN12C renal; more than 100 µM in the assay with NCI-H23 lung; more than 100 µM in the assay with A498 renal; 25.7 µM in the assay with MOLT-4 leukemia. In addition, the TGI in the assay on SK-OV-3 ovarian is more than 100 µM; in the assay on OVCAR-3 ovarian, more than 100 µM; in the assay with NCI-H522 lung, 35.5 µM; in the assay with PC-3 prostate, more than 100 µM; with SR leukemia it was 7.12 µM; with SNB-19 CNS it was more than 100 µM. Moreover, the TGI in the assay on UACC-62 melanoma was more than 100 µM.
Take `COc1ccc2nc3ccc(OC)cc3c(SCCCl)c2c1`: the TGI in the assay on LOX IMVI melanoma is 21.3 µM; in the assay with TK-10 renal, more than 100 µM; in the assay with SN12C renal it was more than 100 µM; in the assay with NCI-H23 lung, more than 100 µM; with A498 renal, more than 91.5 µM; in the assay on MOLT-4 leukemia, 16.4 µM. Further, the TGI was more than 100 µM with SK-OV-3 ovarian; more than 100 µM in the assay on OVCAR-3 ovarian; more than 100 µM in the assay on NCI-H522 lung; more than 100 µM with PC-3 prostate; 15.6 µM in the assay with SR leukemia; more than 85.5 µM in the assay with SNB-19 CNS. Further, the TGI with UACC-62 melanoma is more than 77.6 µM.
`CC(Oc1ccccc1Cl)C(=O)NN1C(=O)CC(=O)N(c2ccc(Cl)cc2)C1=S` (stereo not given): the TGI was more than 100 µM in the assay on LOX IMVI melanoma; more than 100 µM in the assay with TK-10 renal; more than 100 µM in the assay on SN12C renal; more than 100 µM in the assay on NCI-H23 lung; 72.9 µM in the assay on A498 renal; 95.8 µM with MOLT-4 leukemia. The TGI in the assay on SK-OV-3 ovarian was more than 100 µM; with OVCAR-3 ovarian, more than 100 µM; in the assay with NCI-H522 lung, more than 100 µM; with PC-3 prostate, more than 100 µM; in the assay on SR leukemia, 54.4 µM; in the assay on SNB-19 CNS, more than 100 µM. In the assay on UACC-62 melanoma, this molecule gave a TGI of more than 100 µM.
For the molecule `CC1=NN(c2nc(N)nc(/C(C#N)=C\c3ccc(-c4ccc([N+](=O)[O-])cc4)o3)n2)C(C)(C)C1`, the TGI with LOX IMVI melanoma, in the assay on TK-10 renal, in the assay with SN12C renal, in the assay with NCI-H23 lung, in the assay on A498 renal and with MOLT-4 leukemia was more than 100 µM in each case. For the same molecule, the TGI in the assay on SK-OV-3 ovarian, in the assay with OVCAR-3 ovarian, in the assay on NCI-H522 lung, in the assay on PC-3 prostate, in the assay with SR leukemia and with SNB-19 CNS was more than 100 µM in each case. The molecule also showed a TGI in the assay with UACC-62 melanoma of more than 100 µM.
Consider `O=[N+]([O-])c1ccc(N=Nc2c(O)[nH]c3ccccc23)c([N+](=O)[O-])c1`, for which the TGI with LOX IMVI melanoma is 20.7 µM; in the assay on TK-10 renal, 27.4 µM; in the assay with SN12C renal, 38.8 µM; in the assay with NCI-H23 lung, 25.8 µM; in the assay with A498 renal, 79.4 µM; with MOLT-4 leukemia it was more than 100 µM. Besides, the TGI was 32.4 µM in the assay with SK-OV-3 ovarian; 13.9 µM with OVCAR-3 ovarian; more than 100 µM in the assay on NCI-H522 lung; more than 100 µM in the assay with PC-3 prostate; more than 100 µM in the assay on SR leukemia; 51 µM in the assay with SNB-19 CNS. Also, the TGI in the assay on UACC-62 melanoma is more than 100 µM.
For `O=C1c2c(Br)sc(Br)c2[C@@H](O)[C@H]1O`, the TGI in the assay on LOX IMVI melanoma is 34.1 µM; in the assay on TK-10 renal, more than 100 µM; in the assay with SN12C renal, 32.8 µM; in the assay with NCI-H23 lung, 21 µM; with A498 renal, more than 100 µM; in the assay with MOLT-4 leukemia it was 32.6 µM. Besides, the TGI with SK-OV-3 ovarian worked out at 29.4 µM; with OVCAR-3 ovarian, 6.25 µM; in the assay with NCI-H522 lung, 3.54 µM; in the assay on PC-3 prostate, 33.1 µM; in the assay on SR leukemia, 4.84 µM; in the assay with SNB-19 CNS, 38.3 µM. The molecule also displayed a TGI with UACC-62 melanoma of 30.4 µM.
In the case of `CC1(C)OC[C@@H]([C@@]2(COC(c3ccccc3)(c3ccccc3)c3ccccc3)CC=CC(=O)O2)O1`, the TGI in the assay on LOX IMVI melanoma is more than 100 µM; with TK-10 renal, more than 100 µM; in the assay on SN12C renal it was 97.1 µM; in the assay on NCI-H23 lung it was more than 100 µM; in the assay on A498 renal, 71.4 µM; with MOLT-4 leukemia it was 98.2 µM. In addition, the TGI in the assay on SK-OV-3 ovarian was more than 100 µM; in the assay with OVCAR-3 ovarian, more than 100 µM; in the assay on NCI-H522 lung it was 40.9 µM; in the assay with PC-3 prostate it was more than 100 µM; with SR leukemia, more than 100 µM; in the assay on SNB-19 CNS, more than 100 µM. For the same molecule, the TGI in the assay with UACC-62 melanoma was more than 100 µM.
As to `Oc1ccccc1C=Nc1ccc(-c2nc3ccccc3s2)cc1`, the TGI in the assay on LOX IMVI melanoma was more than 100 µM; with TK-10 renal it was 71.4 µM; in the assay on SN12C renal, more than 100 µM; in the assay with NCI-H23 lung, more than 100 µM; in the assay with A498 renal it was 52.4 µM; with MOLT-4 leukemia, more than 100 µM. Further, the TGI was more than 100 µM in the assay with SK-OV-3 ovarian; 88 µM with OVCAR-3 ovarian; 54.7 µM in the assay on NCI-H522 lung; 56.8 µM in the assay on PC-3 prostate; more than 100 µM with SR leukemia; more than 100 µM in the assay on SNB-19 CNS. For the same molecule, the TGI with UACC-62 melanoma is 66.3 µM.
